In general, IC50 refers to the concentration needed to halve the response being measured.

Structures are written as SMILES.

Results on 3 molecules are retold here after patent EP0127076A2, “Histargin, a microbiological process for its preparation, its use as a medicament, and the strain Streptomyces roseoviridis having the ability to produce histargin” (MICROBIAL CHEMISTRY RESEARCH FOUNDATION, priority 1983, dated 1984).

One assay deals with Wistar rats. The assay can be described thus: potentiation of morphine-induced analgesia, tail-flick technique in morphine-unresponsive rats. The assay is classed as in vivo.
The next assay has as its target T1, carboxypeptidase B (Sus scrofa, UniProt P09955).
T1 construct: purified carboxypeptidase B (a product of Boehringer-Mannheim obtained from the pancreas of pigs); purchased Boehringer-Mannheim; host or cells: pig pancreas
T1 sequence (P09955 111-416): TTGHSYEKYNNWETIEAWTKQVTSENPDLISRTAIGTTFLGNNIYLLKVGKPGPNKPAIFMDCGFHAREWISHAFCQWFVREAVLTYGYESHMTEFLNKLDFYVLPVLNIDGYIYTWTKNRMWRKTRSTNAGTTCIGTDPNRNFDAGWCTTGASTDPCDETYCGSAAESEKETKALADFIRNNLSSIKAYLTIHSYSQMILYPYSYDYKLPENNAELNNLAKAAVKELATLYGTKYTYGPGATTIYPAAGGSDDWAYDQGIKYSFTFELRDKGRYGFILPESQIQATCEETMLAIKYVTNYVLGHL
The assay can be described thus: anti-carboxypeptidase B activity (hippuryl-L-lysine substrate, cyanuric chloride colour reaction). Format: biochemical. As to conditions: purified carboxypeptidase B from the pancreas of pigs, 37°C, pH 8.0; read-out: 50 % inhibition (IC50) against carboxypeptidase B (converted). How it is done: Histargin in the cultivation and purification steps was traced by measuring anti-carboxypeptidase B activity. Anti-carboxypeptidase B activity was measured in the following way according to an improved method based on the angiotensin I transferase activity determination method described in M.Hayakari et al., "Analytical Biochemistry," 84, 361-369, 1978.
A mixed solution was prepared by adding 0.25 ml of 0.05M Tris-hydrochloric acid buffer solution (pH 8.0) and 0.15 ml of a solution containing a histargin sample to 0.05 ml of 0.05M hippuryl-L-lysine (a product of Peptide Institute). The mixed solution was heated for 3 minutes at 37°C, and 0.05 ml of an aqueous solution of 1 µg/ml of purified carboxypeptidase B (a product of Boehringer-Mannheim obtained from the pancreas of pigs) was added to the mixed solution. To the resulting mixture was added 0.03 ml of 1N sodium hydroxide to terminate the reaction. Fifteen minutes later, 2 ml of a 1 % methyl cellosolve solution of cyanuric chloride was added for a color reaction. After the mixture was allowed to stand for 15 minutes at room temperature, the absorbance (a) at 382 nm was measured. Separately, there was measured the blank absorbance (b) of the same reaction mixture except that the histargin sample was not contained. The percent inhibition against carboxypeptidase B was calculated from the equation [(b - a)/b] x 100.

In the next assay the test system is enkephalinase B. The assay can be described thus: enkephalinase B inhibition (tritiated methionine enkephalin hydrolysis). Format: biochemical, crab-eating monkeys. Particulars: concentration of 100 µg/ml, pH 7.0. How it is done: Enkephalinase B was obtained by homogenizing the brains of crab-eating monkeys, fractionating the homogenate, and purifying soluble fractions in accordance with the method of Hazato et al. (Biochemical and Biophysical Research Communications, Vol. 105, No. 2, pp. 470-475, 1982). The inhibitory activity of histargin against enkephalinase B was measured by the method of Hasato et al. described in the same reference.
Ten µmol of methionine enkephalin (Tyr-Gly-Gly-Phe-Met) having the terminal tyrosine partially tritiated was used as a substrate. This substrate was hydrolyzed with enkephalinase B in 100 µl of […] Tris-hydrochloric acid buffer solution (pH 7.0). The segment, Tyr-Gly, resulting from hydrolysis was separated using a column of Porapak Q (a product of Whatman), and determined quantitatively based on its radioactivity. The results obtained when the above reaction was carried out in the presence of histargin were compared with those obtained when the reaction was performed in the absence of histargin. Based on the comparison, the enkephalinase B-inhibiting activity of histragin was evaluated.

For another assay, the system named is Slc-CDF1 mice. As to the kind of experiment: cell-mediated immunity: delayed-type hypersensitivity (D.T.H.) to sheep red blood cell, footpad swelling. Format: in vivo. As to conditions: normal mice, 5, 0.5, 0,05 and 0.005 mg/kg once intraperitoneally; statement on Table 1 (image). As for the experimental part:
This effect was investigated using as its index the degree of delayed- type hypersensitivity (D.T.H.) to sheep red blood cell (SRBC) injectd intravenously as an antigen (see J. Exp. Med. 139, 1529-1539, 1974).
A suspension of 10^5 SRBCs in 0.05 ml of physiological saline solution was injected intravenously into Slc-CDF1 mice (female, 9 weeks old). Simultaneously, histargin monohydrate in doses of 5, 0.5, 0,05 and 0.005 mg/kg was administerd once intraperitoneally as a solution dissolved in physiological saline solution.
Four days after admnistration, a suspension of 10^8 SRBCs in 0.05 ml of physiological saline solution was injected subcutaneously to the footpads to induce D.T.H. Twenty-four hours after the subcutaneous injection, footpad swellings (increases in the foot thicknesses) were measured with a caliper. The mean footpad swelling in control animals receiving SRBCs and physiological saline solution but without the test compound was designated as C, which was set at 100 %• The mean footpad swelling in animals treated with SRBCs, physiological saline solution, and the test compound was designated as T. The ratio of T to C was calculated to evaluate the effect of the test compound to potentiate cell-mediated immunity.

As to `N=C(N)NCCCC(NCCNC(Cc1cnc[nH]1)C(=O)O)C(=O)O` (centres unmarked) [histargin monohydrate, histargin], the “Potentiation of morphine-induced analgesia (%)” value (from here on “Potentiation … (%)”) with Wistar rats (100 mg/kg intraperitoneally + 0.5 mg/kg morphine, morphine-unresponsive Wistar rats) is given as 33.8%. The IC50 on carboxypeptidase B was 33.8 µM. Moreover, the “inhibition against enkephalinase B” value with enkephalinase B stood at 92%. Also, the “effect on cell-mediated immunity (D.T.H. footpad swelling, T/C)” value with Slc-CDF1 mice is “potentiates cell-mediated immunity”.

For `CC(C)C[C@H](NC(=O)[C@@H](O)[C@H](N)Cc1ccccc1)C(=O)O` [Bestatin], the “Potentiation … (%)” value in the assay on Wistar rats (250 mg/kg, for comparison, Wistar rats) worked out at 19.9%.

In the case of `CN1CC[C@]23c4c5ccc(O)c4O[C@H]2[C@@H](O)C=C[C@H]3[C@H]1C5` [Morphine], the “Potentiation … (%)” value in the assay with Wistar rats (morphine only 0.5 mg/kg (control group)) stood at 0%; with Wistar rats (morphine only 2 mg/kg), 28.4%; with Wistar rats (morphine only 3 mg/kg), 35.1%.
